≈ marks a conversion by molar mass, not a printed value. Read-outs that look alike come from different tables or passages of the source.
Key:
[1] = tested on: Aspergillus niger ATCC 96918; assay: MIC against pathogenic fungi, Aspergillus niger; type: cell-based
Clostridium perfringens [2] = assay: microbe, parasite or virus in culture; type: cell-based; conditions: Clostridium perfringens
[3] = MIC against pathogenic fungi, Candida ATCC 6258; type: cell-based; conditions: ATCC6258; Candida albicans ATCC 6258 (Candida krusei ATCC 6258)
[4] = tested on: Candida albicans, Aspergillus flavus, Aspergillus niger, and Trichophyton; assay: MIC against common clinical pathogenic fungi (summary); type: cell-based; conditions: range over species
[5] = Pharmacokinetics in rabbit plasma after intramuscular injection; type: in vivo, rabbits; conditions: for Cmax: 20 mg/kg
Method: In order to investigate the metabolic residues of BAB159 in model animals, rabbits were used as animal models to quantitatively analyze the levels of BAB159 in rabbit plasma. Male Chinese white rabbits weighing around 2 kg were adaptively fed for one week. Then, 2 mL of BAB159 suspension was injected into the left hind thigh muscle of the rabbits at a dose of 20 mg/kg b.w. Blood samples were collected from the ear vein at 8 time points, including 0.5, 1, 2, 4, 6, 8, 12, and 24 hours after administration. After pre-treatment of the plasma samples, UPLC-MS/MS detection was performed.

Mycobacterium smegmatis = assay: microbe, parasite or virus in culture; type: cell-based; conditions: Mycolicibacterium smegmatis, read-out: MICs
Haemophilus = assay: MIC, broth microdilution, Haemophilus; type: cell-based
Streptococcus = assay: microbe, parasite or virus in culture; type: cell-based
[6] = tested on: Trichophyton ATCC MTA-4439; assay: MIC against pathogenic fungi, Trichophyton; type: cell-based; conditions: Trichophyton, read-out: MICs
[7] = tested on: Aspergillus flavus ATCC 11492; assay: MIC against pathogenic fungi, Aspergillus flavus; type: cell-based; conditions: ATCC11492
Clostridium perfringens [8] = assay: microbe, parasite or virus in culture; type: cell-based; conditions: read-out: MICs
Staphylococcus = assay: microbe, parasite or virus in culture; type: cell-based
MRSA T144 [9] = conditions: BAB159 at its MIC concentration, OD 600 nm over 24 hours
MRSA T144 [10] = conditions: C57BL/6J mice infected i.p. with MRSA T144, 10 mg/kg b.w. 1 hour after infection, within 3 days
Bacillus = assay: microbe, parasite or virus in culture; type: cell-based
MRSA T144 [11] = conditions: Galleria mellonella infected with MRSA T144, 2 mg/kg b.w. 1 hour after infection, within 5 days
Enterococcus = assay: microbe, parasite or virus in culture; type: cell-based
[12] = tested on: Staphylococcus aureus ATCC 25923; assay: Growth curve (OD 600 nm, 24 h), Staphylococcus aureus; conditions: Staphylococcus aureus ATCC 25923, BAB159 at its MIC concentration, OD 600 nm over 24 hours
[13] = male, Chinese white, im, rabbit plasma, intramuscular injection, 20 mg/kg b.w.
[14] = male, Chinese white, rabbit, plasma, im, rabbits, intramuscular injection, 20 mg/kg b.w.
[15] = read-out: minimum inhibitory concentration (MIC50)

In the case of O=C(Nc1ccc(C(F)(F)F)c(Cl)c1Cl)c1cc(Cl)ccc1O [BAB159], the MICs ([1]; Aspergillus niger ATCC 96918) is reported as 0.5 µg/mL, the MIC ([1]; Aspergillus niger, ATCC96918, Aspergillus niger ATCC 96918) is reported as 0.25 µg/mL (≈ 0.65 µM) and the MIC50 (Clostridium perfringens [2]) is reported as 0.25 µg/mL (≈ 0.65 µM). For the same compound, the MIC90 (Clostridium perfringens [2]) was 0.5 µg/mL (≈ 1.3 µM), the MIC (Clostridium perfringens [2]; read-out: MIC value against Clostridium perfringens, strain A3-1 (A-type)) was 0.5 µg/mL (≈ 1.3 µM) and the MIC (Clostridium perfringens [2]; read-out: MIC value against Clostridium perfringens, strain A3-2 (A-type)) was 0.25 µg/mL (≈ 0.65 µM). The MIC (Clostridium perfringens [2]; read-out: MIC value against Clostridium perfringens, strain A57-1 (A-type)) was 0.25 µg/mL (≈ 0.65 µM), the MIC (Clostridium perfringens [2]; read-out: MIC value against Clostridium perfringens, strain B4 (B-type)) was 0.5 µg/mL (≈ 1.3 µM) and the MIC (Clostridium perfringens [2]; read-out: MIC value against Clostridium perfringens, strain B5 (B-type)) was 0.25 µg/mL (≈ 0.65 µM). For the same compound, the MIC (Clostridium perfringens [2]; read-out: MIC value against Clostridium perfringens, strain C3 (C-type)) was 0.5 µg/mL (≈ 1.3 µM), the MIC (Clostridium perfringens [2]; read-out: MIC value against Clostridium perfringens, strain C8 (C-type)) was 0.25 µg/mL (≈ 0.65 µM) and the MIC (Clostridium perfringens [2]; read-out: MIC value against Clostridium perfringens, strain C59-1 (C-type)) was 0.25 µg/mL (≈ 0.65 µM). For the same compound, the MIC (Clostridium perfringens [2]; read-out: MIC value against Clostridium perfringens, strain D14B (D-type)) was 0.25 µg/mL (≈ 0.65 µM), the MIC (Clostridium perfringens [2]; read-out: MIC value against Clostridium perfringens, strain F5-2 (F-type)) was 0.25 µg/mL (≈ 0.65 µM) and the MIC (Clostridium perfringens [2]; read-out: MIC value against Clostridium perfringens, strain F6-1 (F-type)) was 0.25 µg/mL (≈ 0.65 µM). The MIC (Clostridium perfringens [2]; read-out: MIC value against Clostridium perfringens, strain F6-2 (F-type)) was 0.5 µg/mL (≈ 1.3 µM), the MIC (Clostridium perfringens [2]; read-out: MIC value against Clostridium perfringens, strain F6-2-1 (F-type)) was 0.5 µg/mL (≈ 1.3 µM) and the MIC (Clostridium perfringens [2]; read-out: MIC value against Clostridium perfringens, strain F6-2-2 (F-type)) was 0.25 µg/mL (≈ 0.65 µM). The MIC (Clostridium perfringens [2]; read-out: MIC value against Clostridium perfringens, strain F7-1 (F-type)) was 0.5 µg/mL (≈ 1.3 µM), the MIC (Clostridium perfringens [2]; read-out: MIC value against Clostridium perfringens, strain F8-1 (F-type)) was 0.5 µg/mL (≈ 1.3 µM) and the MIC (Clostridium perfringens [2]; read-out: MIC value against Clostridium perfringens, strain H12-1 (H-type)) was 0.25 µg/mL (≈ 0.65 µM). For the same compound, the MIC (Clostridium perfringens [2]; read-out: MIC value against Clostridium perfringens, strain H12-2 (H-type)) was 0.25 µg/mL (≈ 0.65 µM), the MIC (Clostridium perfringens [2]; read-out: MIC value against Clostridium perfringens, strain H13-1 (H-type)) was 0.5 µg/mL (≈ 1.3 µM) and the MIC (Clostridium perfringens [2]; read-out: MIC value against Clostridium perfringens, strain H14-1 (H-type)) was 0.5 µg/mL (≈ 1.3 µM). It also gave an MIC (Clostridium perfringens [2]; read-out: MIC value against Clostridium perfringens, strain H14-2 (H-type)) of 0.5 µg/mL (≈ 1.3 µM), an MIC (Clostridium perfringens [2]; read-out: MIC value against Clostridium perfringens, strain H14-4 (H-type)) of 0.5 µg/mL (≈ 1.3 µM) and an MIC (Clostridium perfringens [2]; read-out: MIC value against Clostridium perfringens, strain H15-1 (H-type)) of 0.25 µg/mL (≈ 0.65 µM). The MIC (Clostridium perfringens [2]; read-out: MIC value against Clostridium perfringens, strain H15-2 (H-type)) was 0.5 µg/mL (≈ 1.3 µM), the MIC (Clostridium perfringens [2]; read-out: MIC value against Clostridium perfringens, strain H15-3 (H-type)) was 0.25 µg/mL (≈ 0.65 µM) and the MIC (Clostridium perfringens [2]; read-out: MIC value against Clostridium perfringens, strain H16 (H-type)) was 0.25 µg/mL (≈ 0.65 µM). For the same compound, the MIC (Clostridium perfringens [2]; read-out: highest MIC value, against 26 tested strains of Clostridium perfringens) was 0.5 µg/mL (≈ 1.3 µM), the MIC [3] was 1 µg/mL (≈ 2.6 µM) and the MIC [4] was 0.5 to 1 µg/mL (≈ 1.3 to 2.6 µM). The AUIC ([5]; AUC after intramuscular injection in rabbits to MIC50 against Staphylococcus) was 109, the AUC [5, 13] was 1710 ng·h/mL and the Tmax [5, 13] was 6 h. The Cmax ([5]; male, Chinese white, rabbit, plasma, im, rabbit plasma, intramuscular injection, 20 mg/kg b.w., read-out: Cmax) was 207 ng/mL, the AUC(0-t) [5, 14] was 1640 ± 70.5 ng·h/mL and the half-life [5, 14] was 16.1 ± 3.6 h. It also gave a Cmax ([5]; rabbit plasma, intramuscular injection, 20 mg/kg b.w.) of 148.2 ± 13.05 ng/mL, an MIC (Mycobacterium smegmatis) of 2 µg/mL (≈ 5.2 µM) and an MIC50 (Haemophilus; Haemophilus, read-out: minimum inhibitory concentration (MIC50)) of 16 µg/mL (≈ 41.6 µM). For the same compound, the MIC (Haemophilus; gram-negative bacteria such as Haemophilus) was 8 to 32 µg/mL (≈ 20.8 to 83.2 µM), the MIC (Streptococcus; read-out: MICs) was 0.125 µg/mL (≈ 0.325 µM) and the MIC50 (Streptococcus; [15]) was 0.125 µg/mL (≈ 0.325 µM). The MIC [6] was 0.125 µg/mL (≈ 0.325 µM), the MIC [7] was 1 µg/mL (≈ 2.6 µM) and the MIC (Clostridium perfringens [8]) was 0.25 µg/mL (≈ 0.65 µM). The MIC50 (Staphylococcus; Staphylococcus) was 0.0156 µg/mL (≈ 0.0406 µM), the MIC (Staphylococcus; Staphylococcus, read-out: MICs) was 0.01 µg/mL (≈ 0.026 µM) and the MIC50 (Staphylococcus; [15]) was 0.01 µg/mL (≈ 0.026 µM). For the same compound, the “growth inhibition (growth curve)” value (MRSA T144 [9]) was “significantly inhibit the growth”, the protective rate (MRSA T144 [10]) was 100% and the MIC (Bacillus; read-out: MICs) was 0.01 µg/mL (≈ 0.026 µM). It also gave an MIC50 (Bacillus; [15]) of 0.01 µg/mL (≈ 0.026 µM), a protective rate (MRSA T144 [11]) of 70% and an MIC (Enterococcus; read-out: MICs) of 0.25 µg/mL (≈ 0.65 µM). For the same compound, the MIC50 (Enterococcus; [15]) was 0.25 µg/mL (≈ 0.65 µM) and the “growth inhibition (growth curve)” value [12] was “significantly inhibit the growth”.

Reference: US12435031B2, “Compound with broad-spectrum antibacterial activity and its antibacterial composition” (CHINA AGRICULTURAL UNIVERSITY, priority 2023, dated 2025)
